Source: patent publication US10479780B2, “Aminopyrazole derivatives” (Chugai Seiyaku Kabushiki Kaisha, priority 2015, dated 2019)
Like-named read-outs stand apart in the source and are kept apart here.

How the values were obtained:
Type in all cases: biochemical
human Yes1 enzyme = molecular target: T1, human Yes1 enzyme (Homo sapiens, UniProt P07947); test: Yes1 enzyme inhibitory activity (time-resolved fluorometry, biotinylated peptide phosphorylation); settings: read-out: YES_IC50
T1 construct: made in house
Method in brief: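 Inhibition was expressed against a compound-free control to give IC50, using TR-FRET read-out (Eu-cryptate anti-pTyr antibody, streptavidin-XL665).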

human Src enzyme = molecular target: T2, human Src enzyme (Homo sapiens, UniProt P12931); test: Src enzyme inhibitory activity (time-resolved fluorometry, biotinylated peptide phosphorylation); settings: read-out: SRC_IC50
T2 construct: purchased Carna Biosciences, Inc. 08-173
Method in brief: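 Compounds were tested for blocking tyrosine phosphorylation of a biotinylated peptide substrate by recombinant human Src. Phosphorylated product was quantified by time-resolved fluorometry using europium cryptate and XL665 conjugates, and IC50 was calculated against the compound-free control.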

human Lck enzyme = molecular target: T3, human Lck enzyme (Homo sapiens, UniProt P06239); test: Lck enzyme inhibitory activity (time-resolved fluorometry, biotinylated peptide phosphorylation); settings: read-out: LCK_IC50
T3 construct: purchased Carna Biosciences, Inc. 08-170
Method in brief: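 Readout pairs a europium cryptate-labelled anti-phosphotyrosine antibody with XL665-streptavidin, measured by time-resolved fluorescence. IC50 derived from percent inhibition against untreated controls.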

[1] = biotinylated peptide phosphorylation

T1 sequence (P07947 whole entry): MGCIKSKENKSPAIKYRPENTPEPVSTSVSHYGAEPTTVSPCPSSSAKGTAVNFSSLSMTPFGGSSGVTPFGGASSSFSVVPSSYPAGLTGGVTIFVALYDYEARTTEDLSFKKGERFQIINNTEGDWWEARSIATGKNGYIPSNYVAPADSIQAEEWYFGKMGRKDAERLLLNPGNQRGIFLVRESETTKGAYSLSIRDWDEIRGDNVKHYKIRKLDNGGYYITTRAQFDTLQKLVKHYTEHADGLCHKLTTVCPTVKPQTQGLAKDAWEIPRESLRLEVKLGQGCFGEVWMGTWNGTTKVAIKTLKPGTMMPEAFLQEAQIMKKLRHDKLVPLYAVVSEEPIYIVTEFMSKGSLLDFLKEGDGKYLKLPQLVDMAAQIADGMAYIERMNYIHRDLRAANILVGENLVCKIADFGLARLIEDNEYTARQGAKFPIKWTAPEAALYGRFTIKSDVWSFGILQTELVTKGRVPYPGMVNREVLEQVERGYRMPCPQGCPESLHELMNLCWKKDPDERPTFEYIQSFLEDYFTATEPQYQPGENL
T2 sequence (P12931 whole entry): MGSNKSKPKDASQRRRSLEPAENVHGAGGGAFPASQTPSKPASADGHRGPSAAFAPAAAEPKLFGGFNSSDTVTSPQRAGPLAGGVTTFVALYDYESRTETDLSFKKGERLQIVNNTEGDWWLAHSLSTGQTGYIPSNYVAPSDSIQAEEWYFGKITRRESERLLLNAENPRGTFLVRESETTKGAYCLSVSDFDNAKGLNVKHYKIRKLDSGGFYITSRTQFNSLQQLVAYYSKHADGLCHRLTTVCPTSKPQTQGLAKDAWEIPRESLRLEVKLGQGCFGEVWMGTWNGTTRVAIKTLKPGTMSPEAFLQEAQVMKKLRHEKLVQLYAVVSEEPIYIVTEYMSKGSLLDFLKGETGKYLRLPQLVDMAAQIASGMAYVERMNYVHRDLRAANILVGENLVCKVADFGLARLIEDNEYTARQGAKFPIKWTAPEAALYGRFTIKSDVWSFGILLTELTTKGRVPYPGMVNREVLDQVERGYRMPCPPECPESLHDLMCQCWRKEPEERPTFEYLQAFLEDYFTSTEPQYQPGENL
T3 sequence (P06239 whole entry): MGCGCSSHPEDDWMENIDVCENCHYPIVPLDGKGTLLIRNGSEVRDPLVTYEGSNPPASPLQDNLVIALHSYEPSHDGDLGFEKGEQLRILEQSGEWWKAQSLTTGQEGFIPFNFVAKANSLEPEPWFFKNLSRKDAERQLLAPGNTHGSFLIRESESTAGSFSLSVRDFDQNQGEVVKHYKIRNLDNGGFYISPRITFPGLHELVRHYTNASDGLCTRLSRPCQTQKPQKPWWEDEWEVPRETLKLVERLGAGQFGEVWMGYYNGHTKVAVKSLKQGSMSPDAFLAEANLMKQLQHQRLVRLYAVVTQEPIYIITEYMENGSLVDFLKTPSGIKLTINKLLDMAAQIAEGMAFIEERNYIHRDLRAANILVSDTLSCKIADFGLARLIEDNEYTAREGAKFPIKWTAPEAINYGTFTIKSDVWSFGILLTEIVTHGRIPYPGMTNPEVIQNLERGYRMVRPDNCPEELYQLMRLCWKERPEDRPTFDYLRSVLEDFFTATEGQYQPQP

For `Cc1cc(-n2ncc(C(=O)c3cc4cc(OC5CCN(C(C)C)CC5)c(Br)cc4[nH]3)c2N)ccc1Oc1cccc(F)c1` [Example 5-1-210, [5-amino-1-[4-(3-fluorophenoxy)-3-methylphenyl]pyrazol-4-yl]-[6-bromo-5-(1-propan-2-ylpiperidin-4-yl)oxy-1H-indol-2-yl] methanone], the IC50 (human Yes1 enzyme) was 0.0065 µM, the IC50 (human Src enzyme) was 0.51 µM and the IC50 (human Lck enzyme) was 0.12 µM.
`Cc1cc2cc(C(=O)c3cnn(-c4cnc(Oc5ccccc5F)cc4C)c3N)[nH]c2cc1NS(=O)(=O)c1cc(C(F)(F)F)ccn1` [Example 5-1-485, N-[2-[5-amino-1-[6-(2-fluorophenoxy)-4-methylpyridin-3-yl]pyrazole-4-carbonyl]-5-methyl-1H-indol-6-yl]-4-(trifluoromethyl) pyridine-2-sulfonamide] gave an IC50 (human Yes1 enzyme; [1]) of 0.0068 µM, an IC50 (human Src enzyme; [1]) of 0.52 µM and an IC50 (human Lck enzyme; [1]) of 0.11 µM.
`COc1cc2cc(C(=O)c3cnn(-c4ccc(Oc5ccccc5F)cc4C)c3N)[nH]c2cc1NS(=O)(=O)CCCF` [Example 4-13-002, N-[2-[5-amino-1-[4-(2-fluorophenoxy)-2-methylphenyl]pyrazole-4-carbonyl]-5-methoxy-1H-indol-6-yl]-3-fluoropropane-1-sulfonamide] showed an IC50 (human Yes1 enzyme; [1]) of 0.0024 µM, an IC50 (human Src enzyme; [1]) of 0.027 µM and an IC50 (human Lck enzyme; [1]) of 0.02 µM.
`Cc1cc(Oc2ccccc2F)ccc1-n1ncc(C(=O)c2cc3cc(OCC(F)F)c(N4C(=O)NC5(CCN(Cc6ccccc6)C5)C4=O)cc3[nH]2)c1N` (stereo not drawn) [Example 5-1-355, 3-[2-[5-amino-1-[4-(2-fluorophenoxy)-2-methylphenyl]pyrazole-4-carbonyl]-5-(2,2-difluoroethoxy)-1H-indol-6-yl]-7-benzyl-1,3,7-triazaspiro[4.4]nonane-2,4-dione] was tested, and the IC50 (human Yes1 enzyme) was 0.008 µM, the IC50 (human Src enzyme) was 0.097 µM and the IC50 (human Lck enzyme) was 0.013 µM.
Work on `Cc1cc(Oc2ccccc2F)ncc1-n1ncc(C(=O)c2cc3cc(F)c(NS(=O)(=O)c4cccc(C#N)n4)cc3[nH]2)c1N` [Example 5-1-539, N-[2-[5-amino-1-[6-(2-fluorophenoxy)-4-methylpyridin-3-yl]pyrazole-4-carbonyl]-5-fluoro-1H-indol-6-yl]-6-cyanopyridine-2-sulfonamide] yielded an IC50 (human Yes1 enzyme; [1]) of 0.011 µM, an IC50 (human Src enzyme; [1]) of 0.8 µM and an IC50 (human Lck enzyme; [1]) of 0.22 µM.
`Cc1cc(-n2ncc(C(=O)c3cc4cc(OC5CCN(C(C)C)CC5)c(N5C(=O)N[C@@H](CO)C5=O)cc4[nH]3)c2N)ccc1Oc1ccccc1F` [Example 5-1-293, (5S)-3-[2-[5-amino-1-[4-(2-fluorophenoxy)-3-methylphenyl]pyrazole-4-carbonyl]-5-(1-propan-2-ylpiperidin-4-yl)oxy-1H-indol-6-yl]-5-(hydroxymethyl)imidazolidine-2,4-dione] gave an IC50 (human Yes1 enzyme) of 0.00073 µM, an IC50 (human Src enzyme) of 0.44 µM and an IC50 (human Lck enzyme) of 0.018 µM.
For `Cc1cc(Oc2ccccc2F)ccc1-n1ncc(C(=O)c2cc3cc(F)c(NC4CN(S(C)(=O)=O)C4)cc3[nH]2)c1N` [Example 5-1-118], the IC50 (human Yes1 enzyme) was 0.00085 µM, the IC50 (human Src enzyme) was 0.011 µM and the IC50 (human Lck enzyme) was 0.0027 µM.
`Cc1cc2[nH]c(C(=O)c3cnn(-c4ccc(Oc5cccc(F)c5F)cc4C)c3N)cc2cc1NS(C)(=O)=O` [Example 4-2-050, N-[2-[5-amino-1-[4-(2,3-difluorophenoxy)-2-methylphenyl]pyrazole-4-carbonyl]-6-methyl-1H-indol-5-yl]methanesulfonamide] showed an IC50 (human Yes1 enzyme; [1]) of 0.0002 µM, an IC50 (human Src enzyme; [1]) of 0.007 µM and an IC50 (human Lck enzyme; [1]) of 0.0017 µM.
`Cc1cc(Oc2c(F)cccc2F)ncc1-n1ncc(C(=O)c2cc3cc(OC4CCN(C(C)C)CC4)c(N4CCC(O)CC4)cc3[nH]2)c1N` [Example 5-1-202, [5-amino-1-[6-(2,6-difluorophenoxy)-4-methylpyridin-3-yl]pyrazol-4-yl]-[6-(4-hydroxypiperidin-1-yl)-5-(1-propan-2-ylpiperidin-4-yl)oxy-1H-indol-2-yl]methanone] was tested, and the IC50 (human Yes1 enzyme) was 0.00017 µM, the IC50 (human Src enzyme) was 0.0031 µM and the IC50 (human Lck enzyme) was 0.0028 µM.
Work on `Cc1cc(Oc2c(F)cccc2F)ncc1-n1ncc(C(=O)c2cc3cc(OC4CCN(C(C)C)CC4)c(N4CCN(S(C)(=O)=O)CC4)cc3[nH]2)c1N` [Example 5-1-187, [5-amino-1-[6-(2,6-difluorophenoxy)-4-methylpyridin-3-yl]pyrazol-4-yl]-[6-(4-methylsulfonylpiperazin-1-yl)-5-(1-propan-2-ylpiperidin-4-yl)oxy-1H-indol-2-yl]methanone] yielded an IC50 (human Yes1 enzyme) of 0.00062 µM, an IC50 (human Src enzyme) of 0.0032 µM and an IC50 (human Lck enzyme) of 0.0023 µM.
`Cc1cc2cc(C(=O)c3cnn(-c4cnc(Oc5cc(F)ccc5F)cc4C)c3N)[nH]c2cc1NS(C)(=O)=O` [Example 5-1-081, N-[2-[5-amino-1-[6-(2,5-difluorophenoxy)-4-methylpyridin-3-yl]pyrazole-4-carbonyl]-5-methyl-1H-indol-6-yl]methanesulfonamide] gave an IC50 (human Yes1 enzyme) of 0.0024 µM, an IC50 (human Src enzyme) of 0.11 µM and an IC50 (human Lck enzyme) of 0.0064 µM.
In the case of `Cc1cc(Oc2ccccc2F)ncc1-n1ncc(C(=O)c2cc3cc(F)c(NS(=O)(=O)c4cccc(Cl)c4)cc3[nH]2)c1N` [Example 5-1-560, N-[2-[5-amino-1-[6-(2-fluorophenoxy)-4-methylpyridin-3-yl]pyrazole-4-carbonyl]-5-fluoro-1H-indol-6-yl]-3-chlorobenzenesulfonamide], the IC50 (human Yes1 enzyme; [1]) is reported as 0.016 µM, the IC50 (human Src enzyme; [1]) is reported as 2.4 µM and the IC50 (human Lck enzyme; [1]) is reported as 0.69 µM.
Work on `Cc1cc(Oc2cc(F)ccc2Cl)ncc1-n1ncc(C(=O)c2cc3cc(F)c(NS(C)(=O)=O)cc3[nH]2)c1N` [Example 4-2-034, N-[2-[5-amino-1-[6-(2-chloro-5-fluorophenoxy)-4-methylpyridin-3-yl]pyrazole-4-carbonyl]-5-fluoro-1H-indol-6-yl]methanesulfonamide] yielded an IC50 (human Yes1 enzyme; [1]) of 0.0046 µM, an IC50 (human Src enzyme; [1]) of 0.14 µM and an IC50 (human Lck enzyme; [1]) of 0.044 µM.
In the case of `Cc1cc2cc(C(=O)c3cnn(-c4cnc(Oc5ccccc5F)cc4C)c3N)[nH]c2cc1NS(=O)(=O)c1cccnc1` [Example 5-1-441, N-[2-[5-amino-1-[6-(2-fluorophenoxy)-4-methylpyridin-3-yl]pyrazole-4-carbonyl]-5-methyl-1H-indol-6-yl]pyridine-3-sulfonamide], the IC50 (human Yes1 enzyme; [1]) is reported as 0.0018 µM, the IC50 (human Src enzyme; [1]) is reported as 0.28 µM and the IC50 (human Lck enzyme; [1]) is reported as 0.073 µM.
Molecule `Cc1cc(Oc2ccccc2F)ccc1-n1ncc(C(=O)c2cc3cc(F)c(N4C(=O)[C@@H]5C[C@H](NC(=O)OCC6c7ccccc7-c7ccccc76)CN5C4=O)cc3[nH]2)c1N` [Example 5-1-265, 9H-fluoren-9-ylmethyl N-[(6S,7aS)-2-[2-[5-amino-1-[4-(2-fluorophenoxy)-2-methylphenyl]pyrazole-4-carbonyl]-5-fluoro-1H-indol-6-yl]-1,3-dioxo-5,6,7,7a-tetrahydropyrrolo[1,2-c]imidazol-6-yl]carbamate] has an IC50 (human Yes1 enzyme) of 0.0054 µM, an IC50 (human Src enzyme) of 0.44 µM and an IC50 (human Lck enzyme) of 0.038 µM.
`Cc1cc(Oc2c(F)cccc2F)ncc1-n1ncc(C(=O)c2cc3cc(OC4CCN(C5COC5)CC4)c(Br)cc3[nH]2)c1N` [Example 5-1-222, [5-amino-1-[6-(2,6-difluorophenoxy)-4-methylpyridin-3-yl]pyrazol-4-yl]-[6-bromo-5-[1-(oxetan-3-yl)plperidin-4-yl]oxy-1H-indol-2-yl] methanone] showed an IC50 (human Yes1 enzyme) of 0.0013 µM, an IC50 (human Src enzyme) of 0.0047 µM and an IC50 (human Lck enzyme) of 0.0075 µM.
For `COc1cccc(S(=O)(=O)Nc2cc3[nH]c(C(=O)c4cnn(-c5cnc(Oc6ccccc6F)cc5C)c4N)cc3cc2C)c1` [Example 5-1-439, N-[2-[5-amino-1-[6-(2-fluorophenoxy)-4-methylpyridin-3-yl]pyrazole-4-carbonyl]-5-methyl-1H-indol-6-yl]-3-methoxybenzenesulfonamide], the IC50 (human Yes1 enzyme; [1]) was 0.0073 µM, the IC50 (human Src enzyme; [1]) was 0.69 µM and the IC50 (human Lck enzyme; [1]) was 0.31 µM.
With `Cc1cc(Oc2c(F)cccc2F)ncc1-n1ncc(C(=O)c2cc3cc(F)c(N4C(=O)N[C@@H](C)C4=O)cc3[nH]2)c1N` [Example 5-1-406, (5S)-3-[2-[5-amino-1-[6-(2,6-difluorophenoxy)-4-methylpyridin-3-yl]pyrazole-4-carbonyl]-5-fluoro-1H-indol-6-yl]-5-methylimidazolidine-2,4-dione] the IC50 (human Yes1 enzyme; [1]) was 0.0022 µM, the IC50 (human Src enzyme; [1]) was 0.075 µM and the IC50 (human Lck enzyme; [1]) was 0.0031 µM.
`Cc1cc(Oc2c(F)cccc2F)ncc1-n1ncc(C(=O)c2cc3cc(OC(F)F)c(-n4c(C)cc(=O)[nH]c4=O)cc3[nH]2)c1N` [Example 5-1-072, 1-[2-[5-amino-1-[6-(2,6-difluorophenoxy)-4-methylpyridin-3-yl]pyrazole-4-carbonyl]-5-(difluoromethoxy)-1H-indol-6-yl]-6-methylpyrimidine-2,4-dione] was tested, and the IC50 (human Yes1 enzyme) was 0.0077 µM, the IC50 (human Src enzyme) was 0.036 µM and the IC50 (human Lck enzyme) was 0.0082 µM.
Work on `Cc1cc(Oc2ccccc2F)ccc1-n1ncc(C(=O)c2cc3cc(OCC(F)F)c(NS(=O)(=O)C4CCOCC4)cc3[nH]2)c1N` [Example 5-1-325, N-[2-[5-amino-1-[4-(2-fluorophenoxy)-2-methylphenyl]pyrazole-4-carbonyl]-5-(2,2-difluoroethoxy)-1H-indol-6-yl]oxane-4-sulfonamide] yielded an IC50 (human Yes1 enzyme) of 0.0016 µM, an IC50 (human Src enzyme) of 0.032 µM and an IC50 (human Lck enzyme) of 0.018 µM.
In the case of `Cc1cc(Oc2ccccc2F)cc(F)c1-n1ncc(C(=O)c2cc3cc(OCC(F)F)c(N4CCOCC4)cc3[nH]2)c1N` [Example 4-25-021, [5-amino-1-[2-fluoro-4-(2-fluorophenoxy)-6-methylphenyl]pyrazol-4-yl]-[5-(2,2-difluoroethoxy)-6-morpholin-4-yl-1H-indol-2-yl]methanone], the IC50 (human Yes1 enzyme; [1]) is reported as 0.0021 µM, the IC50 (human Src enzyme; [1]) is reported as 0.016 µM and the IC50 (human Lck enzyme; [1]) is reported as 0.0046 µM.
`COc1ccc(S(=O)(=O)Nc2cc3[nH]c(C(=O)c4cnn(-c5cnc(Oc6c(F)cccc6F)cc5C)c4N)cc3cc2OCC(F)F)cc1` [Example 5-1-299, N-[2-[5-amino-1-[6-(2,6-difluorophenoxy)-4-methylpyridin-3-yl]pyrazole-4-carbonyl]-5-(2,2-difluoroethoxy)-1H-indol-6-yl]-4-methoxybenzenesulfonamide] was tested, and the IC50 (human Yes1 enzyme) was 0.0097 µM, the IC50 (human Src enzyme) was 0.61 µM and the IC50 (human Lck enzyme) was 0.12 µM.
